Experimental data as given in patent publication US10745365B2, “Luminogenic and fluorogenic compounds and methods to detect molecules or conditions” (Promega Corporation, priority 2005, dated 2020).

Tests used:
[1] = test system: thermostable luciferase (Luc 146-1H2); assay: Light emission of thermostable luciferase with luciferin derivatives; type: biochemical
Experimental: This stock was used to produce enzyme stock solution having of 200 μg/ml enzyme solution in 1 mg/ml BSA, 200 mM HEPES buffer, pH 8.0, 20 mM MgCl2.
Solutions were made using a 1 M DTT solution, pH adjusted to 8.0, a 20 mM Coenzyme A solution in water (both described in examples above), a 100 mM ATP solution and water to create the following solutions: Sol′ A, 100 μM ATP; Sol′B, 100 μM ATP, 4 mM Coenzyme A; Sol′n C, 100 μM ATP, 400 mM DTT, and; Sol′n D, 100 μM ATP, 4 mM Coenzyme A and 400 mM DTT.
(§1) After assembly, the reactions were initiated by addition of 25 μl of the thermostable luciferase stock solution above and mixing the tube contents. A 50 μl sample was immediately removed and placed in a luminometer tube and the light read and the tube then replaced in a tube rack at room temperature. While the light reading was being taken, a 5 μl sample of the remaining reaction (which was kept at room temperature) was diluted into 495 μl of 50 mM BisTris, pH 6.5, 1 mg/ml BSA, 1 mM EDTA prechilled to 4° C. and the tube mixed and placed on ice. The light produced by the samples in the luminometer tubes were re-read at 20, 40, 60, 90 and 120 minutes post enzyme addition. Additional 5 μl samples were taken and diluted as above at 60 and 120 minutes post enzyme addition. Once all these readings and samples were taken, 50 μl of the diluted samples was mixed with 50 μl of Steady Glo in luminometer tubes, the tubes incubated 10 minutes […] then the light produced was read on a Turner TD 20/20 luminometer.

[2] = test system: thermostable luciferase (Luc 146-1H2); assay: Residual active thermostable luciferase after reaction with derivative (Steady Glo); type: biochemical
Experimental: as §1

light reading of reaction sample ([1]; substrate 6.25, +Co A & DTT, 0 min): 77.35
light reading of reaction sample ([1]; substrate 6.25, +Co A & DTT, 20 min): 7.958
light reading of reaction sample ([1]; substrate 6.25, +Co A & DTT, 40 min): 3.656
light reading of reaction sample ([1]; substrate 6.25, +Co A & DTT, 60 min): 2.312
light reading of reaction sample ([1]; substrate 6.25, +Co A & DTT, 90 min): 1.414
light reading of reaction sample ([1]; substrate 6.25, +Co A & DTT, 120 min): 1.134
light reading of reaction sample ([1]; substrate 6.25, +Co A, 0 min): 1829
light reading of reaction sample ([1]; substrate 6.25, +Co A, 20 min): 114
light reading of reaction sample ([1]; substrate 6.25, +Co A, 40 min): 57.82
light reading of reaction sample ([1]; substrate 6.25, +Co A, 60 min): 37.53
light reading of reaction sample ([1]; substrate 6.25, +Co A, 90 min): 24.66
light reading of reaction sample ([1]; substrate 6.25, +Co A, 120 min): 17.02
light reading of reaction sample ([1]; substrate 6.25, +DTT, 0 min): 72.52
light reading of reaction sample ([1]; substrate 6.25, +DTT, 20 min): 5.903
light reading of reaction sample ([1]; substrate 6.25, +DTT, 40 min): 3.073
light reading of reaction sample ([1]; substrate 6.25, +DTT, 60 min): 2.089
light reading of reaction sample ([1]; substrate 6.25, +DTT, 90 min): 1.431
light reading of reaction sample ([1]; substrate 6.25, +DTT, 120 min): 1.125
light reading of reaction sample ([1]; substrate 6.25, Alone, 0 min): 121
light reading of reaction sample ([1]; substrate 6.25, Alone, 20 min): 5.884
light reading of reaction sample ([1]; substrate 6.25, Alone, 40 min): 3.316
light reading of reaction sample ([1]; substrate 6.25, Alone, 60 min): 2.352
light reading of reaction sample ([1]; substrate 6.25, Alone, 90 min): 1.569
light reading of reaction sample ([1]; substrate 6.25, Alone, 120 min): 1.154
light reading of reaction sample ([1]; substrate 25, +Co A & DTT, 0 min): 57.98
light reading of reaction sample ([1]; substrate 25, +Co A & DTT, 20 min): 5.721
light reading of reaction sample ([1]; substrate 25, +Co A & DTT, 40 min): 3.272
light reading of reaction sample ([1]; substrate 25, +Co A & DTT, 60 min): 2.192
light reading of reaction sample ([1]; substrate 25, +Co A & DTT, 90 min): 1.379
light reading of reaction sample ([1]; substrate 25, +Co A & DTT, 120 min): 1.174
light reading of reaction sample ([1]; substrate 25, +Co A, 0 min): 489.2
light reading of reaction sample ([1]; substrate 25, +Co A, 20 min): 45.45
light reading of reaction sample ([1]; substrate 25, +Co A, 40 min): 25.08
light reading of reaction sample ([1]; substrate 25, +Co A, 60 min): 16.96
light reading of reaction sample ([1]; substrate 25, +Co A, 90 min): 11.03
light reading of reaction sample ([1]; substrate 25, +Co A, 120 min): 7.309
light reading of reaction sample ([1]; substrate 25, +DTT, 0 min): 56.59
light reading of reaction sample ([1]; substrate 25, +DTT, 20 min): 3.761
light reading of reaction sample ([1]; substrate 25, +DTT, 40 min): 2.196
light reading of reaction sample ([1]; substrate 25, +DTT, 60 min): 1.668
light reading of reaction sample ([1]; substrate 25, +DTT, 90 min): 1.274
light reading of reaction sample ([1]; substrate 25, +DTT, 120 min): 1.157
light reading of reaction sample ([1]; substrate 25, Alone, 0 min): 59.87
light reading of reaction sample ([1]; substrate 25, Alone, 20 min): 3.176
light reading of reaction sample ([1]; substrate 25, Alone, 40 min): 1.919
light reading of reaction sample ([1]; substrate 25, Alone, 60 min): 1.305
light reading of reaction sample ([1]; substrate 25, Alone, 90 min): 1.178
light reading of reaction sample ([1]; substrate 25, Alone, 120 min): 1.03
light reading of reaction sample ([1]; substrate 100, +Co A & DTT, 0 min): 25.41
light reading of reaction sample ([1]; substrate 100, +Co A & DTT, 20 min): 3.278
light reading of reaction sample ([1]; substrate 100, +Co A & DTT, 40 min): 2.027
light reading of reaction sample ([1]; substrate 100, +Co A & DTT, 60 min): 1.666
light reading of reaction sample ([1]; substrate 100, +Co A & DTT, 90 min): 1.27
light reading of reaction sample ([1]; substrate 100, +Co A & DTT, 120 min): 1.157
light reading of reaction sample ([1]; substrate 100, +Co A, 0 min): 97.88
light reading of reaction sample ([1]; substrate 100, +Co A, 20 min): 10.3
light reading of reaction sample ([1]; substrate 100, +Co A, 40 min): 7.127
light reading of reaction sample ([1]; substrate 100, +Co A, 60 min): 5.562
light reading of reaction sample ([1]; substrate 100, +Co A, 90 min): 3.969
light reading of reaction sample ([1]; substrate 100, +Co A, 120 min): 2.845
light reading of reaction sample ([1]; substrate 100, +DTT, 0 min): 22.47
light reading of reaction sample ([1]; substrate 100, +DTT, 20 min): 2.233
light reading of reaction sample ([1]; substrate 100, +DTT, 40 min): 1.292
light reading of reaction sample ([1]; substrate 100, +DTT, 60 min): 1.164
light reading of reaction sample ([1]; substrate 100, +DTT, 90 min): 1.093
light reading of reaction sample ([1]; substrate 100, +DTT, 120 min): 0.958
light reading of reaction sample ([1]; substrate 100, Alone, 0 min): 20.46
light reading of reaction sample ([1]; substrate 100, Alone, 20 min): 1.18
light reading of reaction sample ([1]; substrate 100, Alone, 40 min): 0.868
light reading of reaction sample ([1]; substrate 100, Alone, 60 min): 0.788
light reading of reaction sample ([1]; substrate 100, Alone, 90 min): 0.627
light reading of reaction sample ([1]; substrate 100, Alone, 120 min): 0.544
light value of diluted reaction sample in Steady Glo ([2]; substrate 6.25, +Co A & DTT, sample taken 0 min): 1836
light value of diluted reaction sample in Steady Glo ([2]; substrate 6.25, +Co A & DTT, sample taken 60 min): 1625
light value of diluted reaction sample in Steady Glo ([2]; substrate 6.25, +Co A & DTT, sample taken 120 min): 1622
light value of diluted reaction sample in Steady Glo ([2]; substrate 6.25, +Co A, sample taken 0 min): 1647
light value of diluted reaction sample in Steady Glo ([2]; substrate 6.25, +Co A, sample taken 60 min): 976.8
light value of diluted reaction sample in Steady Glo ([2]; substrate 6.25, +Co A, sample taken 120 min): 921.4
light value of diluted reaction sample in Steady Glo ([2]; substrate 6.25, +DTT, sample taken 0 min): 1631
light value of diluted reaction sample in Steady Glo ([2]; substrate 6.25, +DTT, sample taken 60 min): 1544
light value of diluted reaction sample in Steady Glo ([2]; substrate 6.25, +DTT, sample taken 120 min): 1695
light value of diluted reaction sample in Steady Glo ([2]; substrate 6.25, Alone, sample taken 0 min): 1402
light value of diluted reaction sample in Steady Glo ([2]; substrate 6.25, Alone, sample taken 60 min): 1158
light value of diluted reaction sample in Steady Glo ([2]; substrate 6.25, Alone, sample taken 120 min): 1073
light value of diluted reaction sample in Steady Glo ([2]; substrate 25, +Co A & DTT, sample taken 0 min): 529.6
light value of diluted reaction sample in Steady Glo ([2]; substrate 25, +Co A & DTT, sample taken 60 min): 1268
light value of diluted reaction sample in Steady Glo ([2]; substrate 25, +Co A & DTT, sample taken 120 min): 1329
light value of diluted reaction sample in Steady Glo ([2]; substrate 25, +Co A, sample taken 0 min): 1547
light value of diluted reaction sample in Steady Glo ([2]; substrate 25, +Co A, sample taken 60 min): 777.5
light value of diluted reaction sample in Steady Glo ([2]; substrate 25, +Co A, sample taken 120 min): 588.7
light value of diluted reaction sample in Steady Glo ([2]; substrate 25, +DTT, sample taken 0 min): 1116
light value of diluted reaction sample in Steady Glo ([2]; substrate 25, +DTT, sample taken 60 min): 1372
light value of diluted reaction sample in Steady Glo ([2]; substrate 25, +DTT, sample taken 120 min): 1393
light value of diluted reaction sample in Steady Glo ([2]; substrate 25, Alone, sample taken 0 min): 1345
light value of diluted reaction sample in Steady Glo ([2]; substrate 25, Alone, sample taken 60 min): 973.4
light value of diluted reaction sample in Steady Glo ([2]; substrate 25, Alone, sample taken 120 min): 860.3
light value of diluted reaction sample in Steady Glo ([2]; substrate 100, +Co A & DTT, sample taken 0 min): 1745
light value of diluted reaction sample in Steady Glo ([2]; substrate 100, +Co A & DTT, sample taken 60 min): 1319
light value of diluted reaction sample in Steady Glo ([2]; substrate 100, +Co A & DTT, sample taken 120 min): 1343
light value of diluted reaction sample in Steady Glo ([2]; substrate 100, +Co A, sample taken 0 min): 1127
light value of diluted reaction sample in Steady Glo ([2]; substrate 100, +Co A, sample taken 60 min): 1055
light value of diluted reaction sample in Steady Glo ([2]; substrate 100, +Co A, sample taken 120 min): 770.5
light value of diluted reaction sample in Steady Glo ([2]; substrate 100, +DTT, sample taken 0 min): 1168
light value of diluted reaction sample in Steady Glo ([2]; substrate 100, +DTT, sample taken 60 min): 501.5
light value of diluted reaction sample in Steady Glo ([2]; substrate 100, +DTT, sample taken 120 min): 1478
light value of diluted reaction sample in Steady Glo ([2]; substrate 100, Alone, sample taken 0 min): 1262
light value of diluted reaction sample in Steady Glo ([2]; substrate 100, Alone, sample taken 60 min): 1203
light value of diluted reaction sample in Steady Glo ([2]; substrate 100, Alone, sample taken 120 min): 1273
SMILES: O=C(O)[C@H]1CSC(c2nc3ccc(OCCCl)cc3s2)=N1 [L’in-CEE]
